Laboratory results reported in patent US20240109903A1, “SUBSTITUTED HETEROCYCLES FOR TREATING CANCER” (Northwestern University, priority 2022, published 2024).
pIC50: −log10 of the molar value. Read-outs that look alike come from different tables or passages of the source.

Tested on: MV-4-11 acute myeloid leukemia cells
Experiment: CellTiter-Glo 2.0 cell viability, MV-4-11
Assay type: cell-based
Conditions: Homo sapiens; for IC50: MV4-11, 72 h, MV-4-11 cells, 3 days, CellTiter-Glo 2.0, read-out: IC50 (uM) [Cell Type: MV-4-11]; for pIC50: MV4-11, bound stated in text, read-out: IC50 against MV-4-11 acute myeloid leukemia cells
Description: 2019 October; 94(4): 1813-1823.
Cell viability was assessed using the CellTiter-Glo 2.0 assay from Promega, which yields a signal proportional to the amount of ATP present in a cell population. Compounds were first dispensed into empty 96-well flat-bottom tissue culture-treated plates (Corning) using an Echo550. MV4-1 cells were diluted to a density of 0.1 million cells per ml, pipetted onto the compounds at a density of 1,000 cells per well for U937 and 3,000 cells per well for MV4-11, mixed, and incubated for 3 days at 37° C. with 5% C02. After incubating, 5 μl of cells from each well were added to 5 μl of CellTiter-Glo 2.0 reagent in a384-well white ProxiPlate (PerkinElmer), incubated for 20 minutes at ambient temperature, and luminescence was analyzed on an EnSpire plate reader. Graphing and regression analysis was performed in Graphpad Prism.

SMILES	IC50 [µM]	pIC50
FC(F)(F)c1cc2c(Cl)ncnc2n1Cc1cccnc1 [NUCC-0226690]	0.562	> 5.70
COc1ccc(Cn2c(C(F)(F)F)cc3c(Cl)ncnc32)cn1 [NUCC-0226697]	1.08	> 5.70
FC(F)(F)c1cc2c(Cl)ncnc2n1CCN1CCCC1 [NUCC-0226667]	1.43	> 5.70
Cc1ncnc2c1cc(C(F)(F)F)n2CC1CCNCC1 [NUCC-0226696]	> 20	
FC(F)(F)c1cc2c(Cl)ncnc2n1CCN1CCNCC1 [NUCC-0226682]	2.24	
FC(F)(F)c1cc2c(Cl)ncnc2n1CCn1cccn1 [NUCC-0226685]	3.98	
Cc1cc2c(Cl)ncnc2n1CC1CCNCC1 [NUCC-0226699]	> 20	
FC(F)(F)c1cc2cncnc2n1CC1CCNCC1 [NUCC-0226687]	> 20	
Fc1ccc(Cn2c(C(F)(F)F)cc3c(Cl)ncnc32)cc1 [NUCC-0226686]	1.13	> 5.70
Cc1n[nH]c(C)c1CCn1c(C(F)(F)F)cc2c(Cl)ncnc21 [NUCC-0226684]	0.94	> 5.70
FC(F)(F)c1cc2c(Cl)ncnc2n1Cc1ccncc1 [NUCC-0226691]	1.32	> 5.70
O=c1cc(Cn2c(C(F)(F)F)cc3c(Cl)ncnc32)cc[nH]1 [NUCC-0226693]	2.01	
Oc1ncnc2c1cc(C(F)(F)F)n2CC1CCNCC1 [NUCC-0226688]	> 20	
OCCOCCn1c(C(F)(F)F)cc2c(Cl)ncnc21 [NUCC-0226665]	1.23	> 5.70

Results, then the molecule that gave them:

IC50 [µM]	pIC50	SMILES
0.23	> 5.70	CC(C)(O)CCn1c(C(F)(F)F)cc2c(Cl)ncnc21 [NUCC-0226440]
1.12	> 5.70	FC(F)(F)c1cc2c(Cl)ncnc2n1CC1CNC1 [NUCC-0226670]
1.02	> 5.70	CC(C)(C)OC(=O)N1CC(Cn2c(C(F)(F)F)cc3c(Cl)ncnc32)C1 [NUCC-0226669]
1.3	> 5.70	CC(C)(C)OC(=O)N1CCC(CCn2c(C(F)(F)F)cc3c(Cl)ncnc32)CC1 [NUCC-0226678]
> 20		CC(=O)N1CCC(Cn2c(C(F)(F)F)cc3c(Cl)ncnc32)CC1 [NUCC-0226676]
0.11	> 5.70	O=C1CCCN1CCn1c(C(F)(F)F)cc2c(Cl)ncnc21 [NUCC-0226439]
0.949	> 5.70	CC(C)(C)OC(=O)N1CCN(CCn2c(C(F)(F)F)cc3c(Cl)ncnc32)CC1 [NUCC-0226681]
0.919	> 5.70	FC(F)(F)CN1CCC(Cn2c(C(F)(F)F)cc3c(Cl)ncnc32)CC1 [NUCC-0226701]
0.871	> 5.70	FC(F)(F)CN1CC(Cn2c(C(F)(F)F)cc3c(Cl)ncnc32)C1 [NUCC-0226672]
> 20		N=C(N)N1CC(Cn2c(C(F)(F)F)cc3c(Cl)ncnc32)C1 [NUCC-0226671]
2.88		O=S1(=O)CCC(Cn2c(C(F)(F)F)cc3c(Cl)ncnc32)CC1 [NUCC-0226668]
2.09		CN(C)CCn1c(C(F)(F)F)cc2c(Cl)ncnc21 [NUCC-0226666]
0.773	> 5.70	FC(F)(F)c1cc2c(Cl)ncnc2n1CCC1CCNCC1 [NUCC-0226692]
2.51		CC(C)(C)OC(=O)N1CCC(Cn2c(C(F)(F)F)cc3c(Cl)ncnc32)CC1 [NUCC-0226675, tert-butyl 4-((4-chloro-6-(trifluoromethyl)-7H-pyrrolo[2,3-d]pyrimidin-7-yl)methyl)piperidine-1-carboxylate]
1.6	> 5.70	NC(=O)N1CCC(Cn2c(C(F)(F)F)cc3c(Cl)ncnc32)CC1 [NUCC-0226677]
2.68		FC(F)(F)c1cc2c(Cl)ncnc2n1CC1CCOCC1 [NUCC-0226673]
